Reference: patent US20160208339A1, “BIOMARKERS CORRELATED TO PARP INHIBITOR TREATMENT SUCCESS IN AML PATIENTS” (KING'S COLLEGE LONDON, priority 2013, published 2016)

Assays:
MLL-AF9 cells = assay: C57Bl/6 mice injected with leukaemic MLL-AF9 cells; type: in vivo; details: Olaparib 50 mg/kg intra-peritoneal daily for two weeks
Method: (§1) A) Kaplan-Meier survival curve relative to NSG mice injected with NB4 human cells. NB4 human cells expressing the oncogene PML-RARα were injected intravenously in NSG mice and distributed in two groups. […] Treatment was performed for two weeks. Mice were monitored daily until the development of symptoms of leukaemia, when bone marrow (B), spleen (C) and liver (D) were harvested, processed, stained with PE-conjugated antibody against human CD33 and analysed by FACS, to quantify the human cell engraftment in these organs. E) Kaplan-Meier survival curve relative to NSG mice injected with Kasumi human cells. Kasumi human cells expressing the oncogene AML1-ETO were injected intra-femur in NSG mice and distributed in two groups. […] Treatment was performed for two weeks. Mice were monitored daily until the development of symptoms of leukaemia, when bone marrow (F), spleen (G) and liver (H) were harvested, processed, stained with PE-conjugated antibody against human CD33 and analysed by FACS, to quantify the human cell engraftment in these organs. […] Mice were monitored daily until the development of symptoms of leukaemia, when bone marrow (K), spleen (L) and liver (M) were harvested, processed, stained with PE-conjugated antibody against mouse Gr1 and analysed by FACS, to quantify the human cell engraftment in these organs. […]

[1] = system: untargeted population of ovarian cancer; details: phase II; cited from earlier work
bone marrow c-kit+ cells = assay: PARPi titration, colony assay in methylcellulose, normal bone marrow cells; type: cell-based; details: Mus musculus, Bone marrow cell, 168 h; colonies counted after seven days in methylcellulose; nonlinear regression
Method: FIG. 1 PARPi titration. A) PARPi titration in normal bone marrow c-kit cells grown in methylcellulose for 7 days. Data representative of three independent experiments are shown ±SD. […] B) Non linear regression dose response curve, obtained by logarithmic transformation of the data presented in the panel A. C) Colony morphology (contrast microscopy magnification 40×). Representative pictures are shown.
Bone marrow cells were treated with escalating doses of Olaparib in methylcellulose. After seven days colonies were counted. The number of colonies obtained in the untreated condition was set as the top value (100%). The bottom value (0) was calculated as the lowest concentration resulting in no colonies. The data where then analyzed in a nonlinear regression dose-response curve (FIG. 1).

[2] = system: breast, prostate and ovarian cancer patients carrying mutations in BRCA1 or BRCA2 genes; details: phase I and phase II trials; cited from earlier work
[3] = system: ATRA resistant M4-PML-RARα cells; assay: ATRA resistant mouse model, FVB mice injected with M4-PML-RARα cells; type: in vivo; details: Olaparib 50 mg/kg intra-peritoneal daily for two weeks
Method: as §1

[4] = system: NB4 human cells expressing the oncogene PML-RARα; assay: Survival of NSG mice injected intravenously with NB4 human cells; type: in vivo
Method: (§2) A) Kaplan-Meier survival curve relative to NSG mice injected with NB4 human cells. NB4 human cells expressing the oncogene PML-RARα were injected intravenously in NSG mice and distributed in two groups. […] Treatment was performed for two weeks. Mice were monitored daily until the development of symptoms of leukaemia, when bone marrow (B), spleen (C) and liver (D) were harvested, processed, stained with PE-conjugated antibody against human CD33 and analysed by FACS, to quantify the human cell engraftment in these organs. E) Kaplan-Meier survival curve relative to NSG mice injected with Kasumi human cells. Kasumi human cells expressing the oncogene AML1-ETO were injected intra-femur in NSG mice and distributed in two groups. […] Treatment was performed for two weeks. Mice were monitored daily until the development of symptoms of leukaemia, when bone marrow (F), spleen (G) and liver (H) were harvested, processed, stained with PE-conjugated antibody against human CD33 and analysed by FACS, to quantify the human cell engraftment in these organs. I) and J Kaplan-Meier survival curves of FVB and C57Bl/6 mice injected with M4-PML-RARα and MLL-AF9 cells, respectively. ATRA resistant M4-PML-RARα cells were injected intravenously in FVB mice and distributed in three groups. […] Mice were monitored daily until the development of symptoms of leukaemia, when bone marrow (K), spleen (L) and liver (M) were harvested, processed, stained with PE-conjugated antibody against mouse Gr1 and analysed by FACS, to quantify the human cell engraftment in these organs. […]
(§3) In order to test the efficacy of this treatment in vivo, we transplanted Kasumi and NB4 cell lines into a small cohort of sublethally irradiated NOD/SCID/IL2Rg−/− (NSG) mice by intra-femoral and intravenous injection, respectively. […] The maximum dose tolerated was calculated by in vivo dose-response experiments. Mice were monitored daily until they developed symptoms of leukaemia, when they were culled and bone marrow, spleen and liver harvested and analyzed by FACS. […]

NB4-MR2 = assay: Colony assay in methylcellulose, ATRA resistant APL cell model; type: cell-based, human; details: Olaparib 5 μM, methylcellulose 7 days
Method: (§4) FIG. 2 AML1-ETO and PML-RARα leukemic cells are sensitive to PARPi. A) Representative scheme of experimental procedures. B) Non linear regression dose response curve. Normal bone marrow c-kit cells and pre-leukaemic cells expressing the oncofusion proteins AML1-ETO, E2A-PBX, MLL-AF9 and PML-RARα were grown in methylcellulose for 7 days with escalating doses of PARPi. Data representative of three independent experiments are shown. C) Percentage of survival of preleukemic cells to PARPi. The number of colonies surviving to seven days incubation with PARPi treatment was normalized against the untreated control. Data representative of six independent experiments are shown ±SD. […] D) Colony morphology (phase contrast microscopy, magnification 40×). Representative pictures are shown. E) Efficiency of PARP1 Knock down (KD) in NIH3T3 cells infected with retroviral vectors expressing shRNA against mouse PARP1. qPCR data showing expression of PARP1 mRNA in NIH3T3 after infection with sh-mPARP1. Data representative of two independent experiments are shown ±SD. Paired two-tailed t test was performed between empty vector and i) scramble, ii) sh-PARP1-A and iii) sh-PARP1-D*p<0.05. F) Efficiency of PARP1 by Western Blot. Western Blot data showing protein level of PARP1 in NIH3T3 after infection with sh-mPARP1. […]

NB4-LR2 = assay: as above; type: cell-based, human; details: Olaparib 5 μM, methylcellulose 7 days
Method: as §4

NB4 = assay: Colony assay in methylcellulose, human cell line; type: cell-based; details: Olaparib 1-5 μM, methylcellulose 7 days
Method: as §4

Kasumi = assay: Colony assay in methylcellulose, human cell line; type: cell-based; details: Olaparib 1-5 μM, methylcellulose 7 days
Method: as §4

[5] = system: AML1-ETO transformed cells; assay: Clonogenic assay in methylcellulose, RTTA-transformed primary leukaemic cells; type: cell-based, mouse
Method: (§5) FIG. 2 AML1-ETO and PML-RARα leukemic cells are sensitive to PARPi. A) Representative scheme of experimental procedures. B) Non linear regression dose response curve. Normal bone marrow c-kit cells and pre-leukaemic cells expressing the oncofusion proteins AML1-ETO, E2A-PBX, MLL-AF9 and PML-RARα were grown in methylcellulose for 7 days with escalating doses of PARPi. Data representative of three independent experiments are shown. C) Percentage of survival of preleukemic cells to PARPi. The number of colonies surviving to seven days incubation with PARPi treatment was normalized against the untreated control. Data representative of six independent experiments are shown ±SD. […] D) Colony morphology (phase contrast microscopy, magnification 40×). Representative pictures are shown. E) Efficiency of PARP1 Knock down (KD) in NIH3T3 cells infected with retroviral vectors expressing shRNA against mouse PARP1. qPCR data showing expression of PARP1 mRNA in NIH3T3 after infection with sh-mPARP1. Data representative of two independent experiments are shown ±SD. Paired two-tailed t test was performed between empty vector and i) scramble, ii) sh-PARP1-A and iii) sh-PARP1-D*p<0.05. F) Efficiency of PARP1 by Western Blot. Western Blot data showing protein level of PARP1 in NIH3T3 after infection with sh-mPARP1. G) Efficiency of PARP1 KD in leukemic cells infected with retroviral vectors expressing shRNA against mouse PARP1. qPCR data showing expression of PARP1 mRNA in leukemic cells after infection with sh-mPARP1. Data representative of three independent experiments are shown ±SD. 2-way Anova test was performed between empty vector and i) scramble, ii) sh-PARP1-A and iii) sh-PARP1-D*p<0.05, **p<0.01, ***p<0.001. H) Relative number of colonies arisen from leukemic cells transformed by indicated oncoproteins after shPARP1-mediated KD. Bone marrow cells were co-transduced with retroviral vectors carrying the oncogene of interest and empty vector or sh-scramble or shPARP1. The number of colonies was normalized against the empty vector control. Data representative of three independent experiments are shown ±SD. 2-way Anova test was performed between empty vector and i) scramble, ii) sh-PARP1-A and iii) sh-PARP1-D*p<0.05, **p<0.01, ***p<0.001. I) Colony morphology from phase contrast microscopy (magnification 40×). Representative pictures are shown. […] The number of colonies after PARPi treatment was normalized against the untreated control. Data representative of three independent experiments are shown ±SD. […] K) Colony morphology (phase contrast microscopy, magnification 20×). Representative pictures are shown. […] The number of colonies after PARPi treatment was normalized against the untreated control. Data representative of three independent experiments are shown ±SD. […] M) Colony morphology (phase contrast microscopy, magnification 20×). Representative pictures are shown. […] The number of colonies after PARPi treatment was normalized against the untreated control. Data representative of three independent experiments are shown ±SD. […] O) Colony morphology (phase contrast microscopy, magnification 20×). Representative pictures are shown.
(§6) Briefly, c-kit positive progenitor cells of wild type Ly5.1 mouse bone marrow transduced with a retroviral vector expressing the LATFs of interest were plated into a methylcellulose medium supplemented with appropriate myeloid cytokines. Replating was performed every week to generate primary cell lines for further analysis. […] Veliparib is an inhibitor of PARP1/2 produced by Abbott and widely used in clinical trials.

[6] = system: PML-RARα transformed cells; assay: as above; type: cell-based, mouse
Method: as §5, §6

[7] = system: Kasumi human cells expressing the oncogene AML1-ETO; assay: Survival of NSG mice injected intra-femur with Kasumi human cells; type: in vivo
Method: as §2, §3

[8] = system: E2A-PBX transformed cells; assay: Clonogenic assay in methylcellulose, RTTA-transformed primary leukaemic cells; type: cell-based, mouse; details: 1 μM, methylcellulose 7 days
Method: as §5, §6

[9] = system: MLL-AF9 transformed cells; assay: as above; type: cell-based, mouse; details: 1 μM, methylcellulose 7 days
Method: as §5, §6

[10] = Olaparib 25 mg/kg daily for two weeks, FACS human CD33
[11] = Olaparib 25 mg/kg intra-peritoneal daily for two weeks

For `O=C(c1cc(Cc2n[nH]c(=O)c3ccccc23)ccc1F)N1CCN(C(=O)C2CC2)CC1` [Olaparib, 4-[(3-[(4-cyclopropylcarbonyl)piperazin-4-yl]carbonyl)-4-fluorophenyl]methyl(2H)-phthalazin-1-one], the “effect on mice developing leukaemia” value (MLL-AF9 cells) is given as “did not have any significant effect”, the “overall survival benefit compared to chemotherapy” value [1] is given as “failed to show overall survival benefit” and the IC50 (bone marrow c-kit+ cells) is given as 1.9 µM. The anti-tumour effect [2] was “anti-tumour effect”, the side effects [2] was “grade 1 or 2” and the “onset of the leukaemia” value [3] was “significantly delayed”. The “engraftment in bone marrow, spleen and liver” value [4, 10] was “variable reduction”, the “onset of the leukaemia” value [4, 11] was “significantly delayed” and the median survival ([4]; Olaparib 25 mg/kg intra-peritoneal daily for two weeks, control 30 days) was 47 days. The “sensitivity (colony number)” value (NB4-MR2) was “extremely sensitive”, the “sensitivity (colony number)” value (NB4-LR2) was “extremely sensitive” and the “efficacy on colony number” value (NB4) was “confirm the efficacy”. The “efficacy on colony number” value (Kasumi) was “confirm the efficacy”, the IC50 ([5]; Mus musculus, 168 h) was 0.0334 µM and the “reduction in colony forming ability” value ([5]; Olaparib 1 uM, p<0.05) was 70-90%. The “reduction of number of colonies after additional replating” value ([5]; replating in semi-solid medium containing Olaparib, p<0.05) was 90%, the IC50 ([6]; Mus musculus, 168 h) was 0.0158 µM and the “reduction in colony forming ability” value ([6]; Olaparib 1 uM, p<0.05) was 70-90%. The “engraftment in bone marrow, spleen and liver” value [7, 10] was “variable reduction”, the “onset of the leukaemia” value [7, 11] was “significantly delayed” and the median survival ([7]; Olaparib 25 mg/kg intra-peritoneal daily for two weeks, control 50 days, experiment still ongoing) was 115 days.
For `C[C@]1(c2nc3c(C(N)=O)cccc3[nH]2)CCCN1` [Veliparib, 2-((R)-2-methylpyrrolidin-2-yl)-1H-benzimidazole-4-carboxamide], the effect on colonies [8] was “no effect”, the effect on colonies ([5]; 1 μM, methylcellulose 7 days) was “reduced colonies” and the effect on colonies ([6]; 1 μM, methylcellulose 7 days) was “reduced colonies”. The effect on colonies [9] was “no effect”.
